Measurements from patent US11202833B2, “Methylglyoxal-scavenging cyclic peptides and their use for the prevention and treatment of diseases associated with elevated methylglyoxal levels” (RUPRECHT-KARLS-UNIVERSITÄT HEIDELBERG, priority 2016, dated 2021).
One block for each compound: values may come before it. Numbered stars: 1 amine (or outer) side, 2 acyl side, 3 side chain; on linkers, the order of the positions; unused ones are H or OH. Bridge positions count the residues as written; N and C are the ends. Side chains are listed from the residue outwards. Peptide text beside a SMILES is read from it. * marks the point of attachment. ξ: configuration not given here. DOTA = O=C(O)CN1CCN(CC(=O)O)CCN(CC(=O)*)CCN(CC(=O)O)CC1; C16 diacid = O=C(O)CCCCCCCCCCCCCCC(=O)*; ξγGlu = O=C(O)C(CCC(=O)[*:2])N[*:1]; Myristoyl = CCCCCCCCCCCCCC(=O)*

Experiments:
[1] = set-up: species or system NMRI mice; details: mouse, in vivo
Method: DOTA coupled peptides were labeled with ^68Ga as described previously (Wischnjow et al., 2016). In short ^68Ga was eluted from the generator into a tube containing 20 nmol of the peptide and 0.5% ascorbic acid in 0.5 M Na-acetate buffer. The mixture was incubated at pH 3.5-4.0 for 10′ at 95° C. while stirring to allow for the ^68Ga-DOTA complex to form. Free ^68Ga was removed using C18 solid phase extraction cartridges (Thermo Scientific, USA) and the product was checked by HPLC (Agilent Technologies, USA) equipped with a radio flow detector. The labeled peptide was injected i.v. into NMRI mice. PET analysis was carried out for 0-1 h and for another 20′ after 2 h while cumulative pictures are shown for 0-20 min, 40-60 min and 120-140 min.
Data was normalized for animal weight and injected dose and pictures and data are given as standardized uptake value [SUV]. For quantitative comparison the area under the curve for the SUV values of the different regions was determined and compared by Student's t-test.

[2] = tested on: human serum albumin (HSA); assay: Competitive inhibition of HSA MG-H1 formation; type: biochemical; details: for prevention of HSA-MG-H1 formation: FIG. 2B, HSA with MG and scavenger
Method: In short, pure MG-1,1-dimethylacetal was heated in sulphuric acid solution for 1 h and fractionally distilled in a column containing glass helices under reduced pressure. Fractions were analyzed by ^1H and ^13C NMR. […] Two parts urea (8M urea, 0.5 M TrisHCl; pH8.0) were added to the solution and the sample was vortexed. HSA was precipitated by addition of two parts acetonitrile (respective to the final sample/urea mixture) and collected by centrifugation for 10′ at 13000 g. […] The HSA containing pellet was dissolved in 20 mM HCl and the protein content was determined by BCA assay. […] The amount of HSA-MG-H1 adduct was determined by LC-MS. Samples and standard curve were spiked with d3-MG-H1 (Polypeptide Group, San Diego, Calif., USA) and derivatized with Fmoc-Cl. Separation was performed on a C18 column (Hypersil Gold aQ; Thermo Scientific, USA) using a 20 min gradient of 0-100% acetonitrile (0.1% TFA) with the first five minutes diverted to waste. Analysis was carried out on an Exactive Orbitrap MS system (Thermo Scientific, USA). […] The calibration range used for the assay was 0-30 pmol.

[3] = MG scavenging in vitro (MG half-life by HPLC)
Method: (§1) Scavengers (400 μM) were incubated with MG (200 μM) in 0.1 M phosphate buffer, pH 7.4 at 37° C. The kinetics of the scavenging reaction was followed for 48 h. Samples were frozen in liquid nitrogen and stored at −80° C. until analysis. MG content was quantified by HPLC as described below.
(§2) In short samples were precipitated with 20% TCA at a ratio of 2/1 and vortex mixed. Internal standards ^13C MG (LC-MS/MS analysis) or 2,3-dimethylquinoxaline (HPLC analysis) and water was added and the sample mixed again. Samples were centrifuged at 13,000 g at 4° C. for 5 min and the supernatant derivatized with 1,2-diaminobenzene in the presence of sodium azide for 4 h at RT. For HPLC based MG analysis the linear gradient was 0-6% acetonitrile in 15 min. The MG-1,2-diaminobenzene adduct 2-methylquinoxaline and the internal standard 2,3-dimethylquinoxaline were detected with a UV monitor at 320 nm and eluted at 12.7 min and 14.2 min, respectively. For LC-MS/MS, samples were analyzed using an ACQUITY UPLC I equipped with a Xevo TQ-S mass spectrometer (Waters, USA). Samples were separated on BEH C18 analytical column (2.1×50 mm, 1.7 μm) fitted with pre-column (2.1×5 mm, 1.7 μm). Solvent A was water+0.1% formic and solvent B was 50% acetonitrile+0.1% formic acid and a linear gradient from 0-100% solvent B, over ten minutes was used with a flow rate of 0.2 ml/min. Injection volume was 1 μl and the column temperature was 20° C. The quinoxaline analytes were detected by electrospray positive ionization-mass spectrometric multiple-reaction monitoring (MRM). The source temperature was 150° C. and the desolvation gas temperature was 350° C. The cone gas and desolvation gas flow rates were 150 and 800 l/hr, respectively. The capillary voltage was 0.5 kV and the cone voltage was 20V. Mass transitions (parent ion >fragment ion; collision energy) and retention time were as follows: MG 145.01>77.10; 24 eV, 5.93 mins; [^13C3]-MG 148.07>77.16; 24 eV, 5.92 mins. The standard curve was in the range of 0-20 pmol and 0-1 nmol for LC MS/MS analysis and HPLC analysis, respectively.

[4] = Serum stability of 177Lu-labelled peptides; type: in vitro ADME; details: human serum, 37° C., after 24 h, 177Lu label
Method: The cyclic peptide CycK(DOTA)K(Myr)R4E and the linear peptide K(DOTA)K(Myr)R4E were labeled with ^177Lu. In short 20 nmol of peptides were incubated with ^177Lu in 0.4 M Na-acetate buffer (pH 5.0) for 10′ at 95° C. Free ^177Lu was removed by C18 solid phase extraction cartridges, the products eluted with EtOH and checked by radio-HPLC. The radiolabelled peptides were reconstituted in human serum (H4522; Sigma-Aldrich) and incubated in serum at 37° C. for the times indicated. Serum was precipitated by addition of two parts acetonitrile centrifuged for 10 min at 13000 g and the supernatant analysed by HPLC (Agilent Technologies, USA) fitted with a radio flow detector using a 10 min gradient of 0-60% acetonitrile in water (0.1% TFA).

[5] = tested on: washed human whole blood; assay: Hemolysis; details: 37° C., 30 min
Method: (§3) Human whole blood was collected into EDTA tubes and centrifuged at 500 g at RT for 5 min. The plasma and buffy coat was removed and saline solution was added to the haematocrit containing pellet to the previous plasma level to wash the erythrocytes. The tube was gently inverted several times and centrifuged again at 500 g. This procedure was repeated until the supernatant remained clear (approx. 4 times). After the last centrifugation step the hematocrit was re-suspended in PBS to reach the original blood volume. […] Haemolysis was compared to saline solution (negative control; 0% haemolysis) and 1% Triton X100 solution (positive control; 100% haemolysis).

[6] = tested on: murine cardiac endothelial cells; type: cell-based; details: mouse, 48 h, 1 mM
Method: Murine cardiac endothelial cells were seeded on gelatine pre-coated 96 well plates at a density of 5000 cells per well in DMEM (1 g/1 glucose, 5% FCS, 1% Pen/Strep, 1% AmpB, 1% HEPES). On the following day cells were switched to medium containing only 0.1% FCS. […] MTT ((3-(4,5-Dimethylthiazol-2-yl)-2,5-Diphenyltetrazolium Bromide)) solution (50 μl of 2 mg/ml in PBS) was added to the wells and the plate was incubated at 37° C. for 3-4 h. Medium was removed and 200 μl of DMSO was added to lyse cells and solubilise the purple formazan crystals. The plate was incubated for 1 h at room temperature on a shaker and absorbance was measured at 590 nm. Intensity for untreated cells was set to 100%.

[7] = in vivo; details: C57/B16, mouse, ip
Method: Blood was collected by cardiac puncture in an aesthetised mice at time points 10′, 30′, 1 h, 4 h, 8 h and 24 h into tubes containing EDTA. Plasma was collected after centrifugation at 3000 g for 5′ at room temperature and frozen in liquid nitrogen.
Plasma was acidified with 5% TFA (5 μl/30 μl), acetonitrile (60 μl) was added and the tubes vortexed. Another 120 μl of acetonitrile were added and samples were ultrasonicated for 5 min. Samples were spun for 20 min at 13000 g. The supernatant (180 μl) was collected, mixed with 180 μl of water and freeze dried. The sample was resuspended in 30 μl of a mixture of acetonitrile/water (ratio of 1/1) containing 0.1% TFA. The samples was analysed by LC MS. Concentration was calculated by normalisation for the internal standard in combination with linear regression of a standard curve. Concentration/time-points were fitted using a one phase exponential decay model to determine the half-life of the drug.

[8] = 400 µM, pH 7.4
Method: as §1, §2

[9] = tested on: washed human whole blood
Method: as §3

[10] = Kinsky et al., 2016; cited from earlier work

completely excreted after [1]: ≤ 140 min
excreted almost completely within/after ([1]; iv): ≤ 20 min
SMILES: N=C(N)NCCC[C@@H]1NC(=O)[C@H](CCCNC(=N)N)NC(=O)[C@H](CCCNC(=N)N)NC(=O)[C@H](CCCNC(=N)N)NC(=O)[C@H](CCCCNC(=O)CN2CCN(CC(=O)O)CCN(CC(=O)O)CCN(CC(=O)O)CC2)NC(=O)CC[C@@H](C(=O)O)NC1=O (68Ga complex, metal not drawn) [CycK(DOTA)R4E] (K(DOTA)RRRRE-OH; lactam N-6)

SMILES: N=C(N)NN [Agd, aminoguanidine]
prevention of HSA-MG-H1 formation [2]: tended to be more efficient

SMILES: NCCC(=O)N[C@@H](Cc1cnc[nH]1)C(=O)O [Car, carnosine]
prevention of HSA-MG-H1 formation [2]: nor did it prevent
MG scavenging (in words) [3]: neither scavenged MG

SMILES: CN(CC(=O)O)C(=N)N [Cre, creatine]
MG scavenging (in words) [3]: fastest of the endogenous MG scavengers tested

SUV in the bladder [1]: lower
SUV in the kidney [1]: similar
SUV values in the heart, muscle and liver [1]: higher
accumulation in the kidneys [1]: strong accumulation in the kidneys
circulates for [1]: over 140 min
peptide remaining [4]: 86.16%
SMILES: CCCCCCCCCCCCCC(=O)NCCCC[C@@H]1NC(=O)[C@H](CCCCNC(=O)CN2CCN(CC(=O)O)CCN(CC(=O)O)CCN(CC(=O)O)CC2)NC(=O)CC[C@@H](C(=O)O)NC(=O)[C@H](CCCNC(=N)N)NC(=O)[C@H](CCCNC(=N)N)NC(=O)[C@H](CCCNC(=N)N)NC(=O)[C@H](CCCNC(=N)N)NC1=O [CycK(DOTA)K(Myr)R4E] (K(DOTA)K(Myristoyl)RRRRE-OH; lactam N-7)

SMILES: CCCCCCCCCCCCCC(=O)NCCCC[C@@H]1NC(=O)CC[C@@H](C(=O)O)NC(=O)[C@H](CCCNC(=N)N)NC(=O)[C@H](CCCNC(=N)N)NC(=O)[C@H](CCCNC(=N)N)NC(=O)[C@H](CCCNC(=N)N)NC1=O [CycK(Myr)R4E] (K(Myristoyl)RRRRE-OH; lactam N-6)
concentration above which significant hemolysis is displayed [5]: over 50 μM

half-life [7]: ~8 h
MG t1/2 [8]: 1.1 h
SMILES: N=C(N)NCCC[C@@H]1NC(=O)[C@H](CCCNC(=N)N)NC(=O)[C@H](CCCNC(=N)N)NC(=O)[C@H](CCCNC(=N)N)NC(=O)[C@H](CCCCNC(=O)CCC(NC(=O)CCCCCCCCCCCCCCC(=O)O)C(=O)O)NC(=O)CC[C@@H](C(=O)O)NC1=O (stereo partly shown) [CycK(e-Hdd)R4E] (K([ξγGlu-C16 diacid])RRRRE-OH; lactam N-6)
prevention of modification of HSA with MG-H1 ([2]; FIG. 9, peptides 400 μM, HSA 400 μM, MG 200 μM): significantly prevented
viability relative to untreated cells [6]: 75%
hemolysis (in words) [9]: does not cause hemolysis even at high concentrations

peptide remaining [4]: 33.4%
SMILES: CCCCCCCCCCCCCC(=O)NCCCC[C@H](NC(=O)[C@@H](N)CCCCNC(=O)CN1CCN(CC(=O)O)CCN(CC(=O)O)CCN(CC(=O)O)CC1)C(=O)N[C@@H](CCCNC(=N)N)C(=O)N[C@@H](CCCNC(=N)N)C(=O)N[C@@H](CCCNC(=N)N)C(=O)N[C@@H](CCCNC(=N)N)C(=O)N[C@@H](CCC(=O)O)C(=O)O [K(DOTA)K(Myr)R4E] (H-K(DOTA)K(Myristoyl)RRRRE-OH; N-terminus assumed)

SMILES: CN(C)C(=N)N=C(N)N [Met, metformin]
prevention of HSA-MG-H1 formation [2]: did not significantly prevent
MG-metformin adduct concentration in the urine [10]: up to 4 μM

SMILES: Cc1ncc(CO)c(CN)c1O [Pyr, pyridoxamine]
prevention of HSA-MG-H1 formation [2]: did not significantly prevent
